# System: male Sprague Dawley rats
# Experiment: Telemetric sleep/wake recording at baseline and after inescapable tail shock stress, following early life diet (P21-P51)
# Assay type: in vivo, rat
# Conditions: mean ± SEM
# Source text: The aim of this study was to investigate the extent to which early life dietary oligosaccharides and/or polydextrose (PDX+GOS) modulate sleep and protect sleep architecture following stress.
# Timed-pregnant female Sprague Dawley rats were purchased from Charles River Laboratories International, Inc., (Hollister, CA and Canada). Male pups were weaned at postnatal day 21 (P21) and randomised into one of five treatment groups (see Table 6 below). All rats were housed in a temperature-controlled recording room under a 12 hour light: dark cycle with food and water available ad libitum. Environmental conditions were regulated, and room temperature (24±2° C.), humidity (50±20% relative humidity), and lighting were monitored and recorded. Animals were inspected daily.
# All experimenters were blind to type of diet administered to each group. The diets were formulated by Mead Johnson Nutrition (MJN, Evansville IN) based on AlN-93G specifications to be isocaloric and have similar carbohydrate, protein, fat, vitamin and mineral levels. Experimental diets contained 7.0 g/kg galactooligosaccharides (GOS), 7.0 g/kg polydextrose (PDX) and/or 2.2 g/kg sialyllactose (SL). Diets were produced by Envigo (Indianapolis, IN), and ingredients were supplied by: PDX (Danisco, Terre Haute, IN), GOS (Friesland Campina, Zwolle, The Netherlands) and SL (SAL-10; Arla Foods Ingredients, Aarhus, Denmark).
# A total of n=105 male Sprague Dawley rats were used in this study with a subset of animals (n=40) used for sleep/wake analysis. Upon weaning (P21), rats were randomised into one of five treatment groups, based upon diet and exposure to a stressor, as follows:
# The experimental protocol consisted of two phases a diet manipulation phase and a sleep-stressor phase. During the diet manipulation phase, rat weanlings were randomised to either the control diet or one of the three formulated diets. Rats were provided these diets from age P21 to P51, after which all animals were given standard chow. During this diet-manipulation phase, body weights were recorded twice per week and food consumption determined for weekly intervals.
# The second phase of the protocol consisted of telemetric recordings, exposure to stressor, and behavioural assessment. Telemeters were implanted on P64 and undisturbed baseline recordings obtained on P84.
# Rats in groups 2 to 5 were exposed to inescapable shock stress (uncontrollable stress paradigm) on P85 using previously published protocols (Greenwood et al., Behav Brain Res. 2012 Aug. 1; 233(2): 314-321). Briefly, rats were restrained in Plexiglass tubes and received ~100, 5 s tail shocks (1.5 mA) on a […] variable-interval schedule. Stress protocols were conducted during the beginning of the light period. After the end of the stress protocol, rats were returned to their home cages. Home-cage control animals (no stress) remained undisturbed during this period.
# [1] = Dark period (ZT13-24), Baseline
# [2] = Dark period (ZT13-24), Post-stress
# [3] = Light period (ZT5-12), Baseline
# [4] = Light period (ZT5-12), Post-stress
substance,measurement,setting,value
sialyllactose [SL],NREMS bout duration,[1],1.3 ± 0.1 min
same,NREMS bouts,[1],11.9 ± 1.1 number/h
same,NREMS duration,[1],30.1 ± 3.0 % recording time
same,REMS bout duration,[1],0.9 ± 0.1 min
same,REMS bouts,[1],2.8 ± 0.4 number/h
same,REMS duration,[1],6.0 ± 0.9 % recording time
same,Wake bout duration,[1],10.9 ± 2.2 min
same,Wake bouts,[1],8.3 ± 0.6 number/h
same,Wake duration,[1],63.9 ± 3.8 % recording time
same,NREMS bout duration,[2],1.5 ± 0.1 min
same,NREMS bouts,[2],17.7 ± 1.3 number/h
same,NREMS duration,[2],[43.7 ± 1.7**] % recording time
same,REMS bout duration,[2],[1.3 ± 0.1*] min
same,REMS bouts,[2],[5.5 ± 0.5**] number/h
same,REMS duration,[2],[12.3 ± 1.0**] % recording time
same,Wake bout duration,[2],4.1 ± 0.8 min
same,Wake bouts,[2],10.4 ± 1.1 number/h
same,Wake duration,[2],[43.9 ± 2.4**] % recording time
same,NREMS bout duration,[3],1.5 ± 0.1 min
same,NREMS bouts,[3],20.1 ± 1.5 number/h
same,NREMS duration,[3],51.0 ± 3.1 % recording time
same,REMS bout duration,[3],1.2 ± 0.1 min
same,REMS bouts,[3],5.3 ± 0.6 number/h
same,REMS duration,[3],12.6 ± 1.3 % recording time
same,Wake bout duration,[3],3.5 ± 1.1 min
same,Wake bouts,[3],10.1 ± 0.6 number/h
same,Wake duration,[3],36.4 ± 4.2 % recording time
same,NREMS bout duration,[4],2.1 ± 0.1 min
same,NREMS bouts,[4],16.8 ± 1.1 number/h
same,NREMS duration,[4],56.1 ± 2.1 % recording time
same,REMS bout duration,[4],1.6 ± 0.0 min
same,REMS bouts,[4],5.3 ± 0.7 number/h
same,REMS duration,[4],14.4 ± 1.7 % recording time
same,Wake bout duration,[4],3.0 ± 0.7 min
same,Wake bouts,[4],7.8 ± 0.6 number/h
same,Wake duration,[4],29.5 ± 3.5 % recording time

# Source: patent publication US20260263505A1, “Uses of Compositions Comprising a Prebiotic Component” (Mead Johnson Nutrition Company, priority 2021, published 2026)
